Measurements reported in ChEMBL document CHEMBL1201862, “PubChem BioAssay data set” (2004).
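Tested at 5 concentrations; 48 h exposure; 96-well plates; endpoints linearly interpolated, else capped at highest concentration. Here, GI50 denotes the concentration required for 50% inhibition of growth.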 Calls of active or inactive are those of the source. Cut-off read from the data, not from the text of the source: active = GI50 up to about 1.1 µM and inactive = higher.

Legend:
Assay in all cases: NCI-60 cell line screen, 48 h
[1] = test system: SK-MEL-28
[2] = test system: SNB-19
[3] = test system: UACC-257
[4] = test system: SF-295
[5] = test system: SNB-75
[6] = test system: CAKI-1
[7] = test system: UO-31
[8] = test system: U-251
[9] = test system: OVCAR-8
[10] = test system: HOP-62
[11] = test system: SW-620
[12] = test system: SN12C
[13] = test system: SK-OV-3
[14] = test system: HCC 2998
[15] = test system: CCRF-CEM
[16] = test system: K562
[17] = test system: RXF 393
[18] = test system: A549
[19] = test system: OVCAR-4
[20] = test system: M14

Measured: GI50

O=P1(c2ccccc2)Nc2ccccc2SSc2ccccc2N1
inactive: [1] 18.7 µM | [2] 16.3 µM | [3] 15.8 µM | [4] 14.9 µM | [5] 20.4 µM | [6] 18.2 µM | [7] 14.1 µM | [8] 16.7 µM | [9] 18.2 µM | [10] > 10 µM | [11] 16.7 µM | [12] 17.8 µM | [13] 25.5 µM | [14] 20.7 µM | [15] 12.1 µM | [16] 18.2 µM | [17] 19.4 µM | [18] 19.6 µM | [19] 18.6 µM

COc1cc(CCCOC2OC(COC3OCC(O)C(O)C3O)C(O)C(O)C2O)cc2cc(-c3ccc4c(c3)OCO4)oc12 (stereo unspecified)
inactive: [1] > 175 µM | [2] > 175 µM | [3] > 175 µM | [4] > 175 µM | [5] > 175 µM | [6] > 175 µM | [7] > 175 µM | [8] > 175 µM | [9] 94.6 µM | [10] > 175 µM | [11] > 175 µM | [12] 81.3 µM | [13] > 175 µM | [14] > 98.4 µM | [15] > 69.7 µM | [16] > 175 µM | [17] > 94 µM | [18] > 175 µM | [19] > 175 µM

Oc1c(CNCCCN2CCCC2)cc(Cl)c2cccnc12
inactive: [1] 11.2 µM | [2] 6.46 µM | [3] 11.4 µM | [4] 2.19 µM | [5] 13 µM | [6] 3.03 µM | [7] 3.76 µM | [8] 4.09 µM | [9] 3.24 µM | [10] 2.66 µM | [11] 4.01 µM | [12] 5.64 µM | [13] 4.13 µM | [14] 3.1 µM | [15] 2.34 µM | [16] 2.37 µM | [17] 11.5 µM | [18] 3.14 µM | [19] 3.92 µM

COC(=O)C1=C(C)N2CCOC2(C)C(C(=O)OC)C1c1ccc[nH]1 (stereo unspecified)
inactive: [1] > 100 µM | [2] > 100 µM | [3] > 100 µM | [4] > 100 µM | [5] 18.7 µM | [6] > 100 µM | [7] > 100 µM | [9] > 100 µM | [10] > 100 µM | [20] > 100 µM | [11] > 100 µM | [14] > 100 µM | [15] > 100 µM | [16] > 100 µM | [17] > 100 µM | [18] > 100 µM | [19] > 100 µM

Cc1ccc2oc3c(ccc(=O)n3C)c(=O)c2c1
inactive: [1] > 100 µM | [2] > 100 µM | [4] > 100 µM | [5] > 100 µM | [6] > 100 µM | [7] > 100 µM | [8] > 100 µM | [9] > 100 µM | [10] > 100 µM | [20] > 100 µM | [11] > 100 µM | [12] > 100 µM | [13] > 100 µM | [14] > 100 µM | [15] > 100 µM | [16] > 100 µM | [17] > 100 µM | [18] > 100 µM | [19] > 100 µM

Cc1cc(C)nc(NS(=O)(=O)c2ccc(Nc3c4ccccc4nc4c(C(=O)N5CCN(CCOS(C)(=O)=O)CC5)cccc34)cc2)n1
inactive: [1] > 100 µM | [2] > 100 µM | [3] > 100 µM | [4] > 100 µM | [5] 49.9 µM | [6] > 100 µM | [7] > 100 µM | [8] 67 µM | [9] > 100 µM | [10] > 100 µM | [20] > 100 µM | [12] > 100 µM | [13] > 100 µM | [14] > 100 µM | [15] 72.9 µM | [16] 53.2 µM | [17] > 100 µM | [18] > 100 µM | [19] > 100 µM

NC(CCCCCCCCCCP(=O)(O)O)C(=O)O (stereo unspecified)
inactive: [1] > 100 µM | [2] > 100 µM | [3] > 100 µM | [4] > 100 µM | [5] 7.73 µM | [6] 4.23 µM | [7] > 100 µM | [8] > 100 µM | [9] > 100 µM | [20] > 100 µM | [11] > 100 µM | [12] > 100 µM | [13] > 100 µM | [14] > 100 µM | [15] > 100 µM | [16] > 100 µM | [17] > 100 µM | [18] > 100 µM | [19] > 100 µM
